Assay results as given in publication PMC9908924, “Accelerating inhibitor discovery for deubiquitinating enzymes” (Nature Communications, 2023).

Tests used:
UCHL1 = target: T1, UCHL1 (Homo sapiens, UniProt P09936); assay: active-site cysteine modification (in-house validation); type: binding; settings: covalent
T1 construct: full length residues 1-223, N-terminal GST tag (pGEX6P1), 3C protease elution, E. coli BL21(DE3)
T1 sequence (P09936 1-223): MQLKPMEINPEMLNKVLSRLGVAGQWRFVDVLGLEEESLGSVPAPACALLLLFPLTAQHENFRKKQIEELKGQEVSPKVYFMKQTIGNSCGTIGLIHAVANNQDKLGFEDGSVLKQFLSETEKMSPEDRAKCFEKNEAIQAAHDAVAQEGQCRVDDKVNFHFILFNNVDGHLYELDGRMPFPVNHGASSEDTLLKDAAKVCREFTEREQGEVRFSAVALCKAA

USP40 = target: T2, USP40 (Homo sapiens, UniProt Q9NVE5); assay: DUB-ABPP competition with biotin-Ub-PA / biotin-Ub-VME, TMT MS; type: biochemical; settings: chloroacetamide; 10 µM
T2 construct: endogenous full-length protein in HEK293T lysate
T2 sequence (Q9NVE5 1-1235): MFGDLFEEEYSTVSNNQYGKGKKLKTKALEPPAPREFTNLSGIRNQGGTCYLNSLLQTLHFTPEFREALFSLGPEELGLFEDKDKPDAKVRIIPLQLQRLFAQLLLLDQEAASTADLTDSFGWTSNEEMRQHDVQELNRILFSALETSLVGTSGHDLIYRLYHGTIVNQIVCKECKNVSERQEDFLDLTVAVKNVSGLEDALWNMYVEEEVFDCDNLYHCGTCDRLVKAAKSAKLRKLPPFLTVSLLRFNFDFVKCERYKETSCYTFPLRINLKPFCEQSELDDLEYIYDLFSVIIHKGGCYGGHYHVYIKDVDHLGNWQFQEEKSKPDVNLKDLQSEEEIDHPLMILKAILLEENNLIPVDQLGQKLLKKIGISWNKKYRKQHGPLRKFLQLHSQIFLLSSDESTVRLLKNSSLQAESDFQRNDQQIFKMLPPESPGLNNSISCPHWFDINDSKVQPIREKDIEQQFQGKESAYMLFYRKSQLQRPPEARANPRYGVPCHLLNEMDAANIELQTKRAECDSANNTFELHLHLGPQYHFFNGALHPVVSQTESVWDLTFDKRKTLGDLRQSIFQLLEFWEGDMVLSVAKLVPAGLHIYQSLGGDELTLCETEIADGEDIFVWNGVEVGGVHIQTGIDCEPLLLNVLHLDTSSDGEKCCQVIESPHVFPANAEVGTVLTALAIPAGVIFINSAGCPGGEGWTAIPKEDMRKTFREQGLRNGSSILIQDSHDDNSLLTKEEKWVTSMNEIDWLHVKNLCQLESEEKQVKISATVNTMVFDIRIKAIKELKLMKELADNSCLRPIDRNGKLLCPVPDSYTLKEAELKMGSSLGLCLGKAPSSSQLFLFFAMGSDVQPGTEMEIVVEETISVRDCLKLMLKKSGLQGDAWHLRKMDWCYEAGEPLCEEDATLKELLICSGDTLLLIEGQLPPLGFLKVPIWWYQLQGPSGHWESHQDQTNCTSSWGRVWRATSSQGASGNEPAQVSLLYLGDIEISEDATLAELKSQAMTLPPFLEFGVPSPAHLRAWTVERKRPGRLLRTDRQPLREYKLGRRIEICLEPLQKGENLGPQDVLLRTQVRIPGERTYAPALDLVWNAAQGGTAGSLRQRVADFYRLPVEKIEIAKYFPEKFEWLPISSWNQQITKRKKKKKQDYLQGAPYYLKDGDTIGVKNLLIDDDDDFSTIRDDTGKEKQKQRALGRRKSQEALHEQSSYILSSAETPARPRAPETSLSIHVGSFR

VCPIP1 = target: T3, VCPIP1 (Homo sapiens, UniProt Q96JH7); assay: targeted cysteine chemoproteomics (PRM-LIVE); type: biochemical; settings: covalent (catalytic cysteine); 50 µM compound in cell extract
T3 construct: endogenous full-length protein in HEK293 / HEK293T cell extract
T3 sequence (Q96JH7 1-1222): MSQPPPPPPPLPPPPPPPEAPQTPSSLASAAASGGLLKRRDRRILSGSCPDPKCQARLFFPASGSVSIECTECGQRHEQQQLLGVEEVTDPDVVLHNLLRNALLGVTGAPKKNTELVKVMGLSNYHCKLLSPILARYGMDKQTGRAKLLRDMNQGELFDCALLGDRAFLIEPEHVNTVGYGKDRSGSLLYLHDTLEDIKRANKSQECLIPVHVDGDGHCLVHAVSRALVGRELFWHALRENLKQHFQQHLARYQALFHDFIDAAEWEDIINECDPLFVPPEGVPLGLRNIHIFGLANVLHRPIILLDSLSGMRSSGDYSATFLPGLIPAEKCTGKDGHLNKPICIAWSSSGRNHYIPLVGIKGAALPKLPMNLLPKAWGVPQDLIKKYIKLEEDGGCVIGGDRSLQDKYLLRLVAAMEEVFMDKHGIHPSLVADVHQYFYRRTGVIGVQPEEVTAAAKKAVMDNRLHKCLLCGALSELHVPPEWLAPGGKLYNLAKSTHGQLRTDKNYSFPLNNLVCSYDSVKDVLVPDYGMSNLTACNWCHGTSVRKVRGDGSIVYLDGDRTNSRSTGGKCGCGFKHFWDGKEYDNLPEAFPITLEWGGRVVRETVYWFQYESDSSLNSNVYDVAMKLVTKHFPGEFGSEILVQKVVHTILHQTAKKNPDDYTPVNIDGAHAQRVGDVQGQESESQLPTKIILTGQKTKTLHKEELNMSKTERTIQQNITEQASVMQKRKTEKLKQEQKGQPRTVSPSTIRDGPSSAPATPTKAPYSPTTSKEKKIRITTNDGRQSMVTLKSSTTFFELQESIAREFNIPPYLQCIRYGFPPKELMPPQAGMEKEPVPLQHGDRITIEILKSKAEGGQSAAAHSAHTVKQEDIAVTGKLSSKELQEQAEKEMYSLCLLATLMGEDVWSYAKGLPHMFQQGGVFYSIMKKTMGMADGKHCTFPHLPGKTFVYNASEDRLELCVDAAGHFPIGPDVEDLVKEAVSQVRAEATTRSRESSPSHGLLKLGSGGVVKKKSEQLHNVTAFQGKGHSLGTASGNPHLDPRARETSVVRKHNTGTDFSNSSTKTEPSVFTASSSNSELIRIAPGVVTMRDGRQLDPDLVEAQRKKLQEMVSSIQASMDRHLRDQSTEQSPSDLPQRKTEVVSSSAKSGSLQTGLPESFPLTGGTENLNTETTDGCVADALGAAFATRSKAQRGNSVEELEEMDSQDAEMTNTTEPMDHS

BAP1 = target: T4, BAP1 (Homo sapiens, UniProt Q92560); assay: DUB-ABPP competition with biotin-Ub-PA / biotin-Ub-VME, TMT MS; type: biochemical; settings: chloroacetamide; 50 µM
T4 construct: endogenous full-length protein in HEK293T lysate
T4 sequence (Q92560 1-729): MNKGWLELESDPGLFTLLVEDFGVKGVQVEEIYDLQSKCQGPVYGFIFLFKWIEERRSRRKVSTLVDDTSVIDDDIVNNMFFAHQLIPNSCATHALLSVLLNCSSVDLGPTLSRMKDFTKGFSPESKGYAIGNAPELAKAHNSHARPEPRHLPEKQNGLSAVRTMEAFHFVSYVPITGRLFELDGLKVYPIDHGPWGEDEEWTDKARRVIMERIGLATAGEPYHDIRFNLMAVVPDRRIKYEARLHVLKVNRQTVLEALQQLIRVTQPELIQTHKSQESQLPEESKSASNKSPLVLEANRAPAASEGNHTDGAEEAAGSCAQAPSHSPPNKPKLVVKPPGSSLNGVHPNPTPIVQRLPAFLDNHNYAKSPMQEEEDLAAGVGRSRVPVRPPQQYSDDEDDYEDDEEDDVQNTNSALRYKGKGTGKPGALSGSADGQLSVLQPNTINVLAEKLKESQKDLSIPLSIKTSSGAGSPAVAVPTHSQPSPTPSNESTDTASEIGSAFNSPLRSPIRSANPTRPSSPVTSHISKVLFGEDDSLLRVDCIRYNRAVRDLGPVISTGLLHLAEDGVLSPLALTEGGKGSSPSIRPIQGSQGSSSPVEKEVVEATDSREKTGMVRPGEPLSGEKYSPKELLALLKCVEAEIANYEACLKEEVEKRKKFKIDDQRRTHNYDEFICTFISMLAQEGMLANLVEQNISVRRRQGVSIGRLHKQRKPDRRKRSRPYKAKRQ

USP7 = target: T5, USP7 (Homo sapiens, UniProt Q93009); assay: as above; type: biochemical; settings: covalent inhibitor
T5 construct: endogenous full-length protein in HEK293T lysate

USP22 = target: T6, USP22 (Homo sapiens, UniProt Q9UPT9); set-up: ubiquitin-rhodamine cleavage by purified DUB, fluorescence initial rate, 6 h pre-incubation with inhibitor; settings: n=1; inhibitor
T6 construct: purified enzyme
T6 sequence (Q9UPT9 1-525): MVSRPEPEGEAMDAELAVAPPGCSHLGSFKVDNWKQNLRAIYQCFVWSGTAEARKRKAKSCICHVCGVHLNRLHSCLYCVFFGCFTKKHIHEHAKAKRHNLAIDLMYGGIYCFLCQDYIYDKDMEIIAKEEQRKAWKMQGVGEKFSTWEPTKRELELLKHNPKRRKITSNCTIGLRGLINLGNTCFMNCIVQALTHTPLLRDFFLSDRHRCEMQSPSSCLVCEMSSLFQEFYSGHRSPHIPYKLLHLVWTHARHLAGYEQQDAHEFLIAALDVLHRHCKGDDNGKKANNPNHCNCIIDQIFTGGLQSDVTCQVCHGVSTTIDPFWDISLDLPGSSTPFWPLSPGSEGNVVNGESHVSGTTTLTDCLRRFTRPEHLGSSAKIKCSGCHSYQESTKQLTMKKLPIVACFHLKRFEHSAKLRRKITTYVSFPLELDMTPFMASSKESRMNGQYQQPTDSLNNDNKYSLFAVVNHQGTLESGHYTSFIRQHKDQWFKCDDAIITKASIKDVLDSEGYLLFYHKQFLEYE

T5 sequence (Q93009 whole entry): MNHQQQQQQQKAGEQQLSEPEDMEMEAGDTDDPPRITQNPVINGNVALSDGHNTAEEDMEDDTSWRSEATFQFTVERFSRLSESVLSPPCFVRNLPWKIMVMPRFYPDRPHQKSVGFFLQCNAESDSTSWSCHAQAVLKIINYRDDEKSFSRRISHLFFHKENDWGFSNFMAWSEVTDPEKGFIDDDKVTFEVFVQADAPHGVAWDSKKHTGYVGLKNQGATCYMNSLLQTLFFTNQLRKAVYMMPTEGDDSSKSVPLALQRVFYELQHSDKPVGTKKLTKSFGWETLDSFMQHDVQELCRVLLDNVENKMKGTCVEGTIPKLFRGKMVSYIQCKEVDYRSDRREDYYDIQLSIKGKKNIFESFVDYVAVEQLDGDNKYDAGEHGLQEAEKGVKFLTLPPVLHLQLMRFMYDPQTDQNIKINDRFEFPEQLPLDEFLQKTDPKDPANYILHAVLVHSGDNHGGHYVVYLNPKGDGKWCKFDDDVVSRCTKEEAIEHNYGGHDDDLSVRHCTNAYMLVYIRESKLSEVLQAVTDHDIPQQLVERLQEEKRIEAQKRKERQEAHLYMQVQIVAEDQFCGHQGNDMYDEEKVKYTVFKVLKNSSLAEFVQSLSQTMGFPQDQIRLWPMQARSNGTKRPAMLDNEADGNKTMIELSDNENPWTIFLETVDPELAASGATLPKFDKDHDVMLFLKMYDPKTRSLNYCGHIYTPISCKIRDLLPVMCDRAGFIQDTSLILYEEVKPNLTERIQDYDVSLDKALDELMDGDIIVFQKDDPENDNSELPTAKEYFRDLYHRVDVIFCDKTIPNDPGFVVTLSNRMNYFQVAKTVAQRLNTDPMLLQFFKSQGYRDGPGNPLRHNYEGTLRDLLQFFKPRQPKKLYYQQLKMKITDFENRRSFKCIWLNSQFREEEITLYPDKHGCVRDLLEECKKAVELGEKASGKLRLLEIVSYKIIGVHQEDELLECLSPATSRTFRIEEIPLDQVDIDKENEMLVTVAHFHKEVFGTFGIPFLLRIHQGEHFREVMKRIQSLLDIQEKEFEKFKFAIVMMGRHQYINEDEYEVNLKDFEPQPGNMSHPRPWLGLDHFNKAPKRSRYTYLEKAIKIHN

## N#CN1CCC(C(=O)Nc2cn(Cc3ccccc3)cn2)C1 (stereo not drawn) [SB1-F-22]
UCHL1
  active-site cysteine modification (in-house validation): validated in-house to modify the active site cysteine of UCHL1

## COc1ccc(C(=O)NCC2CN(C(=O)CCl)C2)cc1 [V08]
USP40
  DUB-ABPP competition with biotin-Ub-PA / biotin-Ub-VME, TMT MS: USP16 (V03), and USP40 (V08, V09)

## O=C(NCC1CN(C(=O)CCl)C1)c1ccccc1 [WH-9943-103C]
VCPIP1
  % target occupancy at 50 μM: ~ 78%
BAP1
  DUB-ABPP competition with biotin-Ub-PA / biotin-Ub-VME, TMT MS: hit several DUBs including VCPIP1 (WH-9943-103C), BAP1 (WH-9943-103C)

## CN1CCN(CCC(=O)Nc2ccc3c(=O)n(CC4(O)CCN(C(=O)[C@@H](CCCNC(=O)c5ccc6c(Cl)c7c(nc6c5)CCCC7)Cc5ccccc5)CC4)cnc3c2)CC1 [XL177A]
USP7
  DUB-ABPP competition with biotin-Ub-PA / biotin-Ub-VME, TMT MS: recapitulated the DUB binding profiles expected for our selective chemotypes

## O=C(CCl)N1CCC(O)(CNc2ncc3ccccc3n2)CC1 [XL_10320_009A]
USP22
  IC50: 94.4 µM
